The structures appear in SMILES notation.

The data set in a line: Human HepG2 cell viability assay in 384 well format. The data set is classed as toxicity, cell-based. The arrangement: dose 125 nL, time 70.5 hour; concentration not given beside the values. The note with it: HepG2 cells, read-out: Inhibition.
With `CSCCN1CCC(NC(=O)c2cccc(C3CCCNC3)c2)CC1` (centres undefined), the cytotoxicity at 70.5 h is -24.6%.

As to `COCCn1c(=O)n(Cc2ccccc2C)c2cc(C(=O)O)ccc21`, the cytotoxicity at 70.5 h is -7.93%.

As for `Cc1ccsc1CN(C)CCc1scnc1C`, the cytotoxicity at 70.5 h is 14.4%.

In the case of `CN(C)C(C(=O)N1CCC(C#N)CC1)c1ccccc1F` (centres undefined), the cytotoxicity at 70.5 h is -5.19%.

On to `O=c1cc(-c2cccnc2)nc(-c2ccc(CN3CC[C@H](O)C3)cc2)[nH]1`, for which the cytotoxicity at 70.5 h is 9.56%.

Turning to `c1cc2c(cc1OC[C@@H]1CCCN3CCCC[C@H]13)OCCO2`, the cytotoxicity at 70.5 h is 3.85%.

For `COc1ccc(-c2noc(Cn3cc(C)cn3)n2)c(OC)c1OC`, the cytotoxicity at 70.5 h is -1.78%.

Turning to `COc1c(F)cccc1C(=O)NC(C)c1cnn(C)c1` (centres undefined), the cytotoxicity at 70.5 h was -8.49%.

As to `O=C(c1cnccn1)N1CCCC(Cn2cc(C3CCCC3)nn2)C1` (centres undefined), the cytotoxicity at 70.5 h is -10.8%.

With `CCn1ccnc1CN1CCCN(CC2CC2)C(C(C)C)C1` (centres undefined), the cytotoxicity at 70.5 h was -5.83%.

On to `CN(Cc1nncn1C)C(=O)c1cc(COc2ccccc2F)[nH]n1`, for which the cytotoxicity at 70.5 h was -11.1%.

Regarding `CN1CCCCC1CCC(=O)NCCCn1ncc2ccccc21` (centres undefined), the cytotoxicity at 70.5 h is -3.92%.

Turning to `CCC(CNc1ncnc2oc(C)nc12)Cc1ccccc1` (centres undefined), the cytotoxicity at 70.5 h was -1.88%.

`O=S(=O)(N[C@H]1CC[C@H]1NC1Cc2ccccc2C1)c1cccnc1`: the cytotoxicity at 70.5 h was -6.2%.

Turning to `CCn1c(C)cc(C(=O)N2C[C@@H](C(=O)O)[C@H](c3ccccc3)C2)c1C`, the cytotoxicity at 70.5 h is -2.74%.

For the molecule `CC(=O)N1CCCn2nc(CNc3cc(C)ncn3)cc2C1`, the cytotoxicity at 70.5 h worked out at 15%.

Take `OC1(CNCCN2CCc3ccccc32)CNCCOC1` (centres undefined): the cytotoxicity at 70.5 h was -11%.

On to `Cn1cccc1C(=O)N1CC[C@@]2(O)CCN(S(C)(=O)=O)C[C@H]2C1`, for which the cytotoxicity at 70.5 h was -6.36%.

`CN(C)S(=O)(=O)N1C[C@@H]2CC[C@H](C1)N(C/C=C/c1ccc(F)cc1)C2`: the cytotoxicity at 70.5 h came to 0.852%.

With `COc1ccc(CN2CCC(CO)(Cc3ccc(Cl)cc3)CC2)c(O)c1`, the cytotoxicity at 70.5 h is -11.2%.

As to `O=C(c1cccc(-n2cccn2)c1)N1CCOC(CCO)C1` (centres undefined), the cytotoxicity at 70.5 h came to 1.32%.

For the molecule `Cc1nsc(NC(=O)NC2CCCN(C)C2)n1` (centres undefined), the cytotoxicity at 70.5 h was found to be 29.6%.

On to `N#Cc1ccnc(N2CCC(NCCN3CCOCC3)CC2)c1`, for which the cytotoxicity at 70.5 h is -2.14%.

On to `O=C(NCCN1CCCC1)Nc1cc(C(=O)N2CCOCC2)ccc1Cl`, for which the cytotoxicity at 70.5 h was -8.22%.

Consider `COc1cc(C2CC(=O)NCc3nc4sccn4c32)cc(OC)c1O` (centres undefined), for which the cytotoxicity at 70.5 h was -13.6%.

With `COc1cccc(CC2CN(C(=O)c3ccnn3C)CCO2)c1` (centres undefined), the cytotoxicity at 70.5 h was -4.96%.

For `O=c1n(Cc2ncccn2)nc(C2CCNCC2)n1-c1ccccc1`, the cytotoxicity at 70.5 h is -2.01%.

For the molecule `O=C(NC1CC1)c1ccnc(-c2cc(NCCO)nc3[nH]ccc23)c1`, the cytotoxicity at 70.5 h came out at 21.9%.

In the case of `OC1CN(Cc2cccc(N3CCOCC3)c2)Cc2ccccc21` (centres undefined), the cytotoxicity at 70.5 h was -0.922%.

As for `CC(C)NCC1(O)CCCN(CCC2CCCCC2)C1=O` (centres undefined), the cytotoxicity at 70.5 h is -7.37%.

As for `CCOCCN1CCN([C@@H]2c3ccccc3C3(CCNCC3)[C@H]2O)CC1`, the cytotoxicity at 70.5 h was found to be 28.9%.

`O=C1OCCN1C1CCN(Cc2cc3n(n2)CCCNC3)CC1`: the cytotoxicity at 70.5 h was 17.1%.

As to `COc1ccc(C)cc1-n1cnnc1CC1CCNCC1`, the cytotoxicity at 70.5 h is -3.84%.

Consider `COCCNc1cc(-c2ccccc2C(=O)O)c2cc[nH]c2n1`, for which the cytotoxicity at 70.5 h was -10.4%.

Turning to `Cc1cc(CN2CCC(CNC(=O)c3ccc4[nH]cnc4c3)C2)[nH]n1` (centres undefined), the cytotoxicity at 70.5 h was -6.71%.

Consider `COC(=O)[C@H]1C[C@@H](O)CCN1S(=O)(=O)c1cc(C)c(Cl)cc1C`, for which the cytotoxicity at 70.5 h was found to be 0.229%.

As to `O=C(O)[C@@H]1CN(C2CCOCC2)C[C@H]1C1CC1`, the cytotoxicity at 70.5 h was -7.25%.

`CSCCC1c2nc[nH]c2CCN1Cc1ccccc1C(F)(F)F` (centres undefined): the cytotoxicity at 70.5 h worked out at 0.321%.

`CN(CC(C)(C)C)c1ccc(C(=O)NCCCc2ccccn2)cn1`: the cytotoxicity at 70.5 h was -8.74%.

For the origin of these results see ChEMBL document CHEMBL3507680, “University of Dundee, Gates Library screen for HepG2 cell viability”.
